The record followed here is patent US12097261B2, “CDK2 degraders and uses thereof” (Kymera Therapeutics, Inc., priority 2021, dated 2024).

The first test concerns the target T1, CDK2 (Homo sapiens, UniProt P24941).
T1 construct: endogenous in cells; host or cells: OVCAR-8
Description: CDK2 degradation by immunoblotting in OVCAR-8 cells.
Details: not given
Type of test: cell-based. As for the experimental part: CDK2 and CDK1 Degradation by Immunoblotting
Ovarian cancer cell line OVCAR-8 were cultured in 12-well plates in complete growth medium. A serial dilution of each compound was added to individual wells from a 2× stock solution, and cells were cultured for 24 hours. Cells were collected by centrifugation, and cell pellets lysed with addition of chilled RIPA buffer supplemented with protease/phosphatase inhibitors followed by incubation for 20 minutes on ice. Lysates were clarified by centrifugation and 5×SDS loading buffer was added to the supernatant followed by heating to 100° C. for 10 minutes. An aliquot of the samples were separated by SDS-PAGE and transferred to a nitrocellulose membrane. Immunoblotting was performed according to standard procedures using anti-CDK2 primary antibody (Abcam ab32147) at 1:1000 dilution and IRDye 800CW goat anti-Rabbit secondary antibody (LICOR) and imaged using a LICOR Odyssey instrument. Blots were stained with anti-beta-Actin primary antibody (Cell Signaling Technology mAb #4970) for normalization. The normalized CDK2/Actin values were calculated as a percent of DMSO treated cells and plotted to determine the concentration at which 50% of CDK2 signal is decreased (DC50). The determination of CDK1 degradation was determined similarly using anti-CDK1 primary antibody (Abcam ab131450).
Regarding `Cn1c(=O)n(C2CCC(=O)NC2=O)c2ccc(CCCOCCOCCOCCOCC(=O)N3CCC(Nc4ncc5cc(C(F)F)c(=O)n([C@@H]6CCC[C@@]6(C)O)c5n4)CC3)cc21` (stereo partly drawn) [I-20], the “CDK2 DC50, (OVCAR-8, 24 h)” value is “inactive”.

In the case of `Cn1c(=O)n(C2CCC(=O)NC2=O)c2cccc(CCCOCCOCCOCCOCC(=O)N3CCC(Nc4ncc5cc(C(F)F)c(=O)n([C@@H]6CCC[C@@]6(C)O)c5n4)CC3)c21` (stereo partly drawn) [I-21, 3-(4-(1-(4-((6-(Difluoromethyl)-8-((1R,2R)-2-hydroxy-2-methylcyclopentyl)-7-oxo-7,8-dihydropyrido[2,3-d]pyrimidin-2-yl)amino)piperidin-1-yl)-1-oxo-3,6,9,12-tetraoxapentadecan-15-yl)-3-methyl-2-oxo-2,3-dihydro-1H-benzo[d]imidazol-1-yl)piperidine-2,6-dione], the “CDK2 DC50, (OVCAR-8, 24 h)” value was “inactive”.

Turning to `Cn1c(=O)n(C2CCC(=O)NC2=O)c2ccc(CCCCCCCCC(=O)N3CCC(Nc4ncc5cc(C(F)F)c(=O)n([C@@H]6CCC[C@@]6(C)O)c5n4)CC3)cc21` (stereo partly drawn) [I-22], the “CDK2 DC50, (OVCAR-8, 24 h)” value is “inactive”.

Consider `Cn1c(=O)n(C2CCC(=O)NC2=O)c2cccc(CCCCCCCCC(=O)N3CCC(Nc4ncc5cc(C(F)F)c(=O)n([C@@H]6CCC[C@@]6(C)O)c5n4)CC3)c21` (stereo partly drawn) [I-23], for which the “CDK2 DC50, (OVCAR-8, 24 h)” value was “inactive”.

Consider `C[C@@]1(O)CCC[C@H]1n1c(=O)c(C(F)F)cc2cnc(NC3CCN(C(=O)COCCOCCOCCOCCNc4cccc5c4C(=O)N(C4CCC(=O)NC4=O)C5=O)CC3)nc21` (stereo partly drawn) [I-24], for which the “CDK2 DC50, (OVCAR-8, 24 h)” value is “inactive”.

`Cn1c(=O)n(C2CCC(=O)NC2=O)c2ccc(CCCCCCCCCCCC(=O)N3CCC(Nc4ncc5cc(C(F)F)c(=O)n([C@@H]6CCC[C@@]6(C)O)c5n4)CC3)cc21` (stereo partly drawn) [I-25]: the “CDK2 DC50, (OVCAR-8, 24 h)” value is “inactive”.

On to `Cn1c(=O)n(C2CCC(=O)NC2=O)c2cccc(CCCCCCCCCCCC(=O)N3CCC(Nc4ncc5cc(C(F)F)c(=O)n([C@@H]6CCC[C@@]6(C)O)c5n4)CC3)c21` (stereo partly drawn) [I-26], for which the “CDK2 DC50, (OVCAR-8, 24 h)” value was “inactive”.

As for `C[C@@]1(O)CCC[C@H]1n1c(=O)c(C(F)F)cc2cnc(NC3CCN(C(=O)COCCOCCNc4cccc5c4C(=O)N(C4CCC(=O)NC4=O)C5=O)CC3)nc21` (stereo partly drawn) [I-27], the “CDK2 DC50, (OVCAR-8, 24 h)” value is “inactive”.

For `C[C@@]1(O)CCC[C@H]1n1c(=O)c(C(F)F)cc2cnc(NC3CCN(C(=O)CCCCCCCNc4cccc5c4C(=O)N(C4CCC(=O)NC4=O)C5=O)CC3)nc21` (stereo partly drawn) [I-28], the “CDK2 DC50, (OVCAR-8, 24 h)” value is “inactive”.

`Cn1c(=O)n(C2CCC(=O)NC2=O)c2cccc(CCCOCCOCC(=O)N3CCC(Nc4ncc5cc(C(F)F)c(=O)n([C@@H]6CCC[C@@]6(C)O)c5n4)CC3)c21` (stereo partly drawn) [I-29]: the “CDK2 DC50, (OVCAR-8, 24 h)” value was “inactive”.

As to `CC(C)NC(=O)O[C@@H]1CC[C@H](c2cc(NC(=O)c3cnn(CCOCCOCCCc4ccc5c(c4)n(C)c(=O)n5C4CCC(=O)NC4=O)c3)[nH]n2)C1` (stereo partly drawn) [I-85], the “CDK2 DC50, (OVCAR-8, 24 h)” value was “inactive”.

As to `CC(C)NC(=O)O[C@@H]1CC[C@H](c2cc(NC(=O)c3ccnn3CCCCCCCCCc3ccc4c(c3)n(C)c(=O)n4C3CCC(=O)NC3=O)n[nH]2)C1` (stereo partly drawn) [I-87], the “CDK2 DC50, (OVCAR-8, 24 h)” value is “inactive”.

Regarding `CC(C)NC(=O)O[C@@H]1CC[C@H](c2cc(NC(=O)c3ccnn3CCCCCCCCCCCCc3cccc4c3n(C)c(=O)n4C3CCC(=O)NC3=O)n[nH]2)C1` (stereo partly drawn) [I-89], the “CDK2 DC50, (OVCAR-8, 24 h)” value is “inactive”.

Consider `CC(C)NC(=O)O[C@@H]1CC[C@H](c2cc(NC(=O)Cc3cnn(C4CCC(CN(C)C5CCN(Cc6cccc7c6n(C)c(=O)n7C6CCC(=O)NC6=O)CC5)CC4)c3)n[nH]2)C1` (stereo partly drawn) [I-93], for which the “CDK2 DC50, (OVCAR-8, 24 h)” value is “inactive”.

Staying with this test, now noted: 24 h.
`CC(C)NC(=O)O[C@@H]1CC[C@H](c2cc(NC(=O)c3cnn(C4CCC(CN(C)C5CCN(Cc6cccc7c6n(C)c(=O)n7C6CCC(=O)NC6=O)CC5)CC4)c3)n[nH]2)C1` (stereo partly drawn) [I-84, (1R,3S)-3-(5-(1-(4-(((1-((1-(2,6-dioxopiperidin-3-yl)-3-methyl-2-oxo-2,3-dihydro-1H-benzo[d]imidazol-4-yl)methyl)piperidin-4-yl)(methyl)amino)methyl)cyclohexyl)-1H-pyrazole-4-carboxamido)-1H-pyrazol-3-yl)cyclopentyl isopropylcarbamate] had a DC50 of 1000 to 5000 nM.
